We go through 50 compounds from patent US20110245284A1, “Alkoxy- and Alkylthio-Substituted Anilinopyrimidines” (Bayer CropScience AG, priority 2008, published 2011).

A value given as a limit tells only on which side of the number the result lay.

Series [1] can be described thus: logP by LC-MS on reversed-phase columns (C 18), method [b], acidic range pH 2.7. The format is physicochemical. Particulars: for chromatographic logP: pH 2.7, log p. The method, then: (§1) The logP values were determined in accordance with EEC Directive 79/831 Annex V.A8 by HPLC (High Performance Liquid Chromatography) on reversed-phase columns (C 18), using the methods below:
[b] The LC-MS determination in the acidic range is carried out at pH 2.7 using the mobile phases 0.1% aqueous formic acid and acetonitrile (contains 0.1% formic acid), linear gradient from 10% acetonitrile to 95% acetonitrile.

Another series deals with Leptosphaeria nodorum. Nature of the series: Leptosphaeria nodorum test (wheat) / protective. The format is in vivo. Particulars: Parastagonospora nodorum, active compound concentration 500 ppm, evaluation 7-9 days after inoculation, read-out: efficacy. The method, then: Thereafter, the plants are placed in a greenhouse at 90% relative atmospheric humidity and a temperature of 22° C.

A short description of series [2]: logP by LC-MS on reversed-phase columns (C 18), method [c], neutral range pH 7.8. The format is physicochemical. The method, then:
as §1
[c] The LC-MS determination in the neutral range is carried out at pH 7.8 using the mobile phases 0.001 molar aqueous ammonium bicarbonate solution and acetonitrile, linear gradient from 10% acetonitrile to 95% acetonitrile.

The mark [3] stands for this setting: method [b], LC-MS, acidic range pH 2.7.
Setting [4] is: method [c], LC-MS, neutral range pH 7.8.

With `CC[S+]([O-])C(C)c1cccc(Nc2ncc(Cl)c(NC3CC3)n2)c1` (stereo not drawn) [Example 74], the figures for the chromatographic logP in series [1] and in series [2] (pH 7.8) were 1.48 and 2.16, respectively. Moreover, the pest or weed control at 500 ppm in the series with Leptosphaeria nodorum was at least 70%.

Take `COCC(C)Oc1ccc(Nc2ncc(C(F)(F)F)c(NC3CC3)n2)cc1Cl` (stereo not drawn) [Example 78]: the log p in series [1] (pH 2.7) is 3.7[b]; in series [2] (pH 7.8) it was 3.99[c];.

For `COCC(C)Oc1ccc(Nc2ncc(C(F)(F)F)c(NC3CC3)n2)cc1C(F)(F)F` (stereo not drawn) [Example 80], the values for the log p in series [1] (pH 2.7) and in series [2] (pH 7.8) were 4.05[b] and 4.28[c];, respectively.

For `COCCOc1ccc(Nc2ncc(C(F)(F)F)c(NC3CC3)n2)cc1F` [Example 81], the values for the log p in series [1] (pH 2.7) and in series [2] (pH 7.8) were 2.89[b] and 3.27[c];, respectively.

`COCc1cccc(Nc2ncc(Br)c(NC3CC3C)n2)c1` (stereo not drawn) [Example 84]: the log p in series [1] (setting [3]) is 2.15[b]; in series [2] (setting [4]), 3.59[c];.

As for `COCC(C)Oc1ccc(Nc2ncc(C(F)(F)F)c(NC3CC3)n2)cc1` (stereo not drawn) [Example 88], the log p in series [1] (pH 2.7) is 2.71[b]; in series [2] (pH 7.8) it was 3.45[c];.

For the compound `COCc1cccc(Nc2ncc(Cl)c(N3CCCCC3)n2)c1` [Example 89], the log p in series [1] (pH 2.7) is 3.14[b]; in series [2] (pH 7.8), 4.2[c];.

With `COCc1cccc(Nc2ncc(Cl)c(N3CCOCC3)n2)c1` [Example 90], the log p in series [1] (pH 2.7) is 2.4[b]; in series [2] (pH 7.8), 2.87[c];.

For the compound `CCCSc1cccc(Nc2ncc(Br)c(NC3CC3C)n2)c1` (stereo not drawn) [Example 99], the log p is 3.83[b] in series [1] (setting [3]) and 5.09[c]; in series [2] (setting [4]).

On to `CCCCSc1cccc(Nc2ncc(Br)c(NC3CCC3)n2)c1` [Example 104], for which the chromatographic logP in series [1] was 4.57; in series [2] (pH 7.8), 5.71. Further, the pest or weed control at 500 ppm with Leptosphaeria nodorum is at least 70%.

Take `CCCS(=O)(=O)c1cccc(Nc2ncc(Br)c(NC3CC3)n2)c1` [Example 110]: the chromatographic logP in series [1] was found to be 2.43; in series [2] (pH 7.8), 2.99. In the series on Leptosphaeria nodorum, the pest or weed control at 500 ppm was at least 70%.

`CCCC[S+]([O-])c1cccc(Nc2ncc(C(F)(F)F)c(NC3CC3)n2)c1` (stereo not drawn) [Example 122]: the chromatographic logP was 2.94 in series [1] and 3.02 in series [2] (pH 7.8).

Turning to `CCCCS(=O)(=O)c1cccc(Nc2ncc(Cl)c(NC3CC3)n2)c1` [Example 123], the chromatographic logP in series [1] stood at 2.65; in series [2] (pH 7.8), 3.18. Besides, the pest or weed control at 500 ppm in the series on Leptosphaeria nodorum is at least 70%.

As for `CCCCSc1cccc(Nc2ncc(C(F)(F)F)c(NC3CCC3)n2)c1` [Example 128], the chromatographic logP in series [1] came out at 5.55; in series [2] (pH 7.8) it was 5.78. Besides, the pest or weed control at 500 ppm in the series with Leptosphaeria nodorum was at least 70%.

As for `COC(C)c1cccc(Nc2ncc(Cl)c(NC(C)C3(Cl)CC3)n2)c1` (stereo not drawn) [Example 130], the log p in series [1] (pH 2.7) is 3.72[b]; in series [2] (pH 7.8), 4.65[c];.

`CCCC(C)SC(C)c1cccc(Nc2ncc(Cl)c(NC3CC3)n2)c1` (stereo not drawn) [Example 134]: the log p is 4.24[b] in series [1] (pH 2.7) and 5.55[c]; in series [2] (pH 7.8).

Consider `CCCC(C)SC(C)c1cccc(Nc2ncc(C(F)(F)F)c(NC3CC3)n2)c1` (stereo not drawn) [Example 135], for which the log p is 5.53[b] in series [1] (pH 2.7) and 5.8[c]; in series [2] (pH 7.8).

Turning to `CCN(c1nc(Nc2cccc(COC)c2)ncc1Cl)C1CC1` [Example 137], the log p was 3.24[b] in series [1] (pH 2.7) and 4.23[c]; in series [2] (pH 7.8).

As to `CCCC[S+]([O-])c1cccc(Nc2ncc(Br)c(NC3CCC3)n2)c1` (stereo not drawn) [Example 152], the log p in series [1] (pH 2.7) was 2.67[b]; in series [2] (pH 7.8) it was 3.5[c];.

As to `CCS(=O)(=O)C(C)c1cccc(Nc2ncc(Br)c(NC3CC3)n2)c1` (stereo not drawn) [Example 154], the log p in series [1] (pH 2.7) was 1.76[b]; in series [2] (pH 7.8) it was 2.7[c];.

Turning to `CCCSc1cccc(Nc2ncc(C(F)(F)F)c(NC3CCC3)n2)c1` [Example 155], the chromatographic logP in series [1] was found to be 5.01; in series [2] (pH 7.8) it was 5.43. Besides, the pest or weed control at 500 ppm in the series on Leptosphaeria nodorum was at least 70%.

On to `CC(C)CS(=O)(=O)c1cccc(Nc2ncc(Cl)c(NC3CC3)n2)c1` [Example 161], for which the chromatographic logP in series [1] is 2.64; in series [2] (pH 7.8) it was 3.23. For the same compound, the pest or weed control at 500 ppm in the series with Leptosphaeria nodorum is at least 70%.

As to `CCCC(C)S(=O)(=O)C(C)c1cccc(Nc2ncc(Cl)c(NC3CC3)n2)c1` (stereo not drawn) [Example 165], the log p in series [1] (pH 2.7) was 2.48[b]; in series [2] (pH 7.8) it was 3.56[c];.

Regarding `CCCC(C)[S+]([O-])C(C)c1cccc(Nc2ncc(Cl)c(NC3CC3)n2)c1` (stereo not drawn) [Example 166], the results for the log p in series [1] (pH 2.7) and in series [2] (pH 7.8) were 2.2[b] and 3.1[c];, respectively.

Take `CCCC(C)[S+]([O-])C(C)c1cccc(Nc2ncc(C(F)(F)F)c(NC3CC3)n2)c1` (stereo not drawn) [Example 167]: the figures for the log p in series [1] (pH 2.7) and in series [2] (pH 7.8) were 3.34[b] and 3.85[c];, respectively.

In the case of `CCCCS(=O)(=O)c1cccc(Nc2ncc(Cl)c(NC3CCC3)n2)c1` [Example 170], the chromatographic logP in series [1] came to 3.09; in series [2] (pH 7.8), 3.69. Moreover, in the series on Leptosphaeria nodorum, the pest or weed control at 500 ppm is at least 70%.

Consider `CNc1nc(Nc2cccc(COC)c2)ncc1Cl` [Example 172], for which the chromatographic logP in series [1] came to 1.18; in series [2] (pH 7.8) it was 2.44.

As to `CCOCCOCCSc1cccc(Nc2ncc(Cl)c(NC3CC3)n2)c1` [Example 180], the log p in series [1] (pH 2.7) was 2.58[b]; in series [2] (pH 7.8), 3.63[c];.

Take `COCCOCCOc1ccc(Nc2ncc(C(F)(F)F)c(NC3CC3)n2)cc1C(F)(F)F` [Example 182]: the log p in series [1] (pH 2.7) was 3.52[b]; in series [2] (pH 7.8), 3.79[c];.

In the case of `CCOCCOc1ccc(Nc2ncc(Cl)c(NC3CC3)n2)cc1C(F)(F)F` [Example 185], the chromatographic logP turned out to be 2.91 in series [1] and 4 in series [2] (pH 7.8).

With `CCC(C)Sc1cccc(Nc2ncc(C(F)(F)F)c(NC3CC3)n2)c1` (stereo not drawn) [Example 188], the chromatographic logP was determined as 4.9 in series [1] and 5.01 in series [2] (pH 7.8). Besides, in the series on Leptosphaeria nodorum, the pest or weed control at 500 ppm is at least 70%.

`CCOCCSc1cccc(Nc2ncc(Cl)c(NC3CC3)n2)c1` [Example 189]: the chromatographic logP came to 2.7 in series [1] and 3.76 in series [2] (pH 7.8). Besides, in the series on Leptosphaeria nodorum, the pest or weed control at 500 ppm is at least 70%.

Turning to `CCCCS(=O)(=O)c1cccc(Nc2ncc(C(F)(F)F)c(NC3CCC3)n2)c1` [Example 202], the chromatographic logP in series [1] turned out to be 3.91; in series [2] (pH 7.8), 4.01. Besides, in the series with Leptosphaeria nodorum, the pest or weed control at 500 ppm is at least 70%.

With `COCCOC(c1cccc(Nc2ncc(Cl)c(NC3CC3)n2)c1)C(F)(F)F` (stereo not drawn) [Example 215], the values for the log p in series [1] (pH 2.7) and in series [2] (pH 7.8) were 2.63[b] and 3.61[c];, respectively.

Take `COCCOC(c1cccc(Nc2ncc(C(F)(F)F)c(NC3CC3)n2)c1)C(F)(F)F` (stereo not drawn) [Example 216]: the log p in series [1] (pH 2.7) is 3.72[b]; in series [2] (pH 7.8) it was 3.9[c];.

Turning to `COCCOC(c1cccc(Nc2ncc(Br)c(NC3CC3)n2)c1)C(F)(F)F` (stereo not drawn) [Example 217], the figures for the log p in series [1] (pH 2.7) and in series [2] (pH 7.8) were 2.85[b] and 3.76[c];, respectively.

On to `COC(C)c1cccc(Nc2ncc(Br)c(NC3CC3C)n2)c1` (stereo not drawn) [Example 226], for which the log p in series [1] (setting [3]) is 2.5[b]; in series [2] (setting [4]), 3.98[c];.

As to `COC(C)c1cccc(Nc2ncc(C(F)(F)F)c(NC3CC3C)n2)c1` (stereo not drawn) [Example 229], the chromatographic logP in series [1] is 3.61; in series [2] (pH 7.8), 4.1. The pest or weed control at 500 ppm in the series on Leptosphaeria nodorum is at least 70%.

In the case of `CCSc1cccc(Nc2ncc(C(F)(F)F)c(NC3CCC3C)n2)c1` (stereo not drawn) [Example 233], the values for the chromatographic logP in series [1] and in series [2] (pH 7.8) were 4.89 and 5.27, respectively.

In series [2] (pH 7.8), `CCOC(COCc1cccc(Nc2ncc(C(F)(F)F)c(NC3CC3)n2)c1)OCC` [Example 238] yielded a chromatographic logP of 4.09.

Take `CCOC(C)c1cccc(Nc2ncc(Br)c(NC3CC3C)n2)c1` (stereo not drawn) [Example 240]: the log p in series [1] (setting [3]) is 2.89[b]; in series [2] (setting [4]) it was 4.42[c];.

`CC[S+]([O-])c1cccc(Nc2ncc(C(F)(F)F)c(NC3CC(C)C3)n2)c1` (stereo not drawn) [Example 242]: the results for the chromatographic logP in series [1] and in series [2] (pH 7.8) were 2.98 and 3.32, respectively.

Regarding `COCCOC(C)c1cccc(Nc2ncc(Cl)c(NC3CC3)n2)c1` (stereo not drawn) [Example 243], the chromatographic logP in series [1] was found to be 2; in series [2] (pH 7.8) it was 3.26.

Turning to `CC[S+]([O-])c1cccc(Nc2ncc(C(F)(F)F)c(NC3CCC3C)n2)c1` (stereo not drawn) [Example 244], the chromatographic logP came out at 2.9 in series [1] and 3.3 in series [2] (pH 7.8).

On to `CCCS(=O)(=O)c1cccc(Nc2ncc(C(F)(F)F)c(NC3CC3C)n2)c1` (stereo not drawn) [Example 245], for which the chromatographic logP in series [1] is 3.43; in series [2] (pH 7.8) it was 3.61.

On to `CCC[S+]([O-])c1cccc(Nc2ncc(C(F)(F)F)c(NC3CC3C)n2)c1` (stereo not drawn) [Example 246], for which the chromatographic logP in series [1] amounted to 2.9; in series [2] (pH 7.8), 3.23.

On to `COCCCOC(C)c1cccc(Nc2ncc(C(F)(F)F)c(NC3CC3)n2)c1` (stereo not drawn) [Example 254], for which the chromatographic logP came to 3.49 in series [1] and 3.98 in series [2] (pH 7.8).

In the case of `COCCOC(C)c1cccc(Nc2ncc(C(F)(F)F)c(NC3CC3)n2)c1` (stereo not drawn) [Example 257], the chromatographic logP stood at 3.05 in series [1] and 3.61 in series [2] (pH 7.8).

For the compound `CCOC(C)c1cccc(Nc2ncc(C(F)(F)F)c(NC3CC3)n2)c1` (stereo not drawn) [Example 258], the chromatographic logP in series [1] amounted to 3.6; in series [2] (pH 7.8), 4.12.

Turning to `CCSC(C)c1cccc(Nc2ncc(Cl)c(NC3CCC3C)n2)c1` (stereo not drawn) [Example 259], the chromatographic logP was found to be 3.59 in series [1] and 5.3 in series [2] (pH 7.8).
